Test: Physical form of choline-based ionic liquids at room temperature
Format: physicochemical
Method: Several ionic liquids comprising choline as a cation and various anions were synthesized. […] For anions not miscible with the aqueous choline bicarbonate solution, a co-solvent, such as ethanol, was added until a homogenous mixture formed. The mixture was stirred at room temperature until CO2 evolution ceased. Solvent was removed by rotary evaporation at 60° C. for 20 minutes, and each product was dried in a vacuum oven for 48 hours at 60° C.

[1] = cation:anion 1:1, room temperature
[2] = cation:anion 1:2, room temperature
[3] = cation:anion 2:1, room temperature

Compound | Physical Form (Ratios Listed as Cation:Anion) [1] | Physical Form (Ratios Listed as Cation:Anion) [2] | further results
COc1cc(/C=C/C(=O)O)ccc1O [Trans-Ferulic Acid] | Solid at 1:1 |  | 
O=C1CC[C@@H](C(=O)O)N1 [Pyroglutamic Acid] | Solid | Liquid | 
O=C(O)CCC(=O)C(=O)O [α-Ketoglutaric Acid] |  |  | Physical Form (Ratios Listed as Cation:Anion) [3]: Liquid at 2:1
CC(C)CCC(=O)O [4-Methylvaleric Acid] |  | Liquid at 1:2 | 
O=C(O)CO [Glycolic Acid] | Liquid at 2:1, 1:1 |  | Physical Form (Ratios Listed as Cation:Anion) [3]: Liquid at 2:1, 1:1
O=P(O)(O)O [Phosphoric Acid] | Solid | Liquid | Physical Form (Ratios Listed as Cation:Anion) [3]: Liquid
CCCCCCCCCC(=O)O [Decanoic Acid] | Solid | Solid | Physical Form (Ratios Listed as Cation:Anion) (cation:anion 1:1, room temperature, listed as decanoic acid): solid; Physical Form (Ratios Listed as Cation:Anion) (cation:anion 1:2, room temperature, listed as decanoic acid): solid; Physical Form (Ratios Listed as Cation:Anion) [3]: Liquid; Physical Form (Ratios Listed as Cation:Anion) (cation:anion 2:1, room temperature, listed as decanoic acid): liquid; appearance and physical form (room temperature, ratio as in label): waxy solid
CCCCCC[C@@H](O)C/C=C\CCCCCCCC(=O)O [Ricinoleic Acid] | Liquid at 1:1, 1:2 | Liquid at 1:1, 1:2 | 
O=C(O)CC(=O)O [Malonic Acid] | Liquid at 1:1 |  | 
O=C(O)CCC(=O)O [Succinic Acid] | Liquid at 2:1, 1:1, 1:2 | Liquid at 2:1, 1:1, 1:2 | Physical Form (Ratios Listed as Cation:Anion) [3]: Liquid at 2:1, 1:1, 1:2
CCCCCCCCC(CCCCCC)C(=O)O (stereo not shown) [2-Hexyldecanoic Acid] | Liquid at 1:1 |  | 
CC(CCC(C(=O)O)C(C)CC(C)(C)C)CC(C)(C)C (stereo not shown) [2-(4,4-Dimethyl-2-pentanyl)-5,7,7-trimethyloctanoic Acid] | Solid at 1:1 |  | 
O=C(O)CCCC(=O)O [Glutaric Acid] | Liquid at 2:1, 1:1 |  | Physical Form (Ratios Listed as Cation:Anion) [3]: Liquid at 2:1, 1:1
CC(C)=CCC/C(C)=C/C(=O)O [Geranic Acid] | Liquid at 1:1, 1:2 | Liquid at 1:1, 1:2 | 
CC(C)Cc1ccc(C(C)C(=O)O)cc1 (stereo not shown) [2-(4-Isobutylphenyl)propionic Acid] | Solid at 1:1 |  | 
CC(=O)C(=O)O [Pyruvic Acid] | Liquid at 1:1, 1:2 | Liquid at 1:1, 1:2 | 
O=C1O[C@H]([C@@H](O)CO)C(O)=C1O [L-Ascorbic Acid] | Solid at 1:1 |  | 
CCCCCC(=O)O [Hexanoic Acid] | Liquid at 1:1, 1:2 | Liquid at 1:1, 1:2 | 
CCCCC(C)CCC(=O)O (stereo not shown) [4-Methyloctanoic Acid] | Liquid | Solid | 
CC(O)C(=O)O (stereo not shown) [Lactic Acid] | Liquid at 1:1, 1:2 | Liquid at 1:1, 1:2 | 
CC(=O)CCC(=O)O [Levulinic Acid] | Liquid at 1:1, 1:2 | Liquid at 1:1, 1:2 | 
N[C@@H](CCC(=O)N[C@@H](CS)C(=O)NCC(=O)O)C(=O)O [L-Glutathione reduced] |  |  | Physical Form (Ratios Listed as Cation:Anion) [3]: Solid at 2:1
O=c1oc2c(O)c(O)cc3c(=O)oc4c(O)c(O)cc1c4c23 [Ellagic Acid] | Solid at 1:1 |  | 
Cc1ccc(S(=O)(=O)O)cc1 [p-Toluenesulfonic Acid] | Solid | Liquid | 
CCC/C=C/C(=O)O [Trans-2-Hexenoic Acid] | Liquid at 1:1, 1:2 | Liquid at 1:1, 1:2 | 
CCCCC/C=C/C(=O)O [Trans-2-Octenoic Acid] | Liquid at 1:1, 1:2 | Liquid at 1:1, 1:2 | 
O=C(O)CNC(=O)c1ccccc1O [2-Hydroxyhippuric Acid] | Solid at 1:1 |  | 
CC(C)C1=CC2=CC[C@@H]3[C@](C)(CCC[C@@]3(C)C(=O)O)[C@H]2CC1 [Abietic Acid] | Solid at 1:1 |  | 
O=C(O)C1CC2C=CC1C2 (stereo not shown) [5-Norbornene-2-carboxylic Acid] | Solid at 1:1 |  | 

Reference: patent US20240130994A1, “IONIC LIQUID FORMULATIONS FOR TREATING DIABETES” (i2O Therapeutics, Inc., priority 2020, published 2024)
